From patent publication US20250326765A1, “PDE4B INHIBITOR AND USE THEREOF” (XIZANG HAISCO PHARMACEUTICAL CO., LTD., priority 2022, published 2025)

Assays:
[1] = target: T1, hERG potassium ion channel (Homo sapiens, UniProt Q12809); assay: Test for hERG potassium ion channel (manual patch-clamp, CHO cells); type: cell-based; conditions: CHO cells stably expressing hERG, whole cell patch-clamp; read-out: IC50, inhibition of hERG potassium channel current
T1 construct: expressed in transfected cells
Source text: Experimental Platform: Electrophysiological Manual Patch-Clamp System
Cell line: Chinese hamster ovary (CHO) cell line stably expressing hERG potassium ion channel
Experimental method: CHO (Chinese Hamster Ovary) cells stably expressing hERG potassium channel were subjected to a whole cell patch-clamp technique to record the hERG potassium channel current at room temperature. The glass microelectrode was made of a glass electrode blank (BF150-86-10, Sutter) by a puller. The tip resistance after filling the liquid in the electrode was about 2-5 MQ. The glass microelectrode can be connected to the patch-clamp amplifier by inserting the glass microelectrode into an amplifier probe. The clamping voltage and data recording were controlled and recorded by the pClamp 10 software through a computer. The sampling frequency was 10 kHz, and the filtering frequency was 2 kHz. After the whole cell records were obtained, the cells were clamped at −80 mV, and the step voltage that induced the hERG potassium current (IhERG) was depolarized from −80 mV to +20 mV for 2 s, then repolarized to −50 mV, and returned to −80 mV after 1 s. This voltage stimulation was given every 10 s, and the administration process was started after the hERG potassium current was confirmed to be stable (at least 1 minute). The compound was administered for at least 1 minute at each test concentration, and at least 2 cells (n: 2) were tested at each concentration.
Data processing: Data analysis processing was carried out by using pClamp 10, GraphPad Prism 5, and Excel software. The degree of inhibition on the hERG potassium current (peak value of hERG tail current induced at −50 mV) at different compound concentrations was calculated by the following formula:
[formula] • where Inhibition % represents the percentage inhibition of the compound on the hERG potassium current, and I and Io represent the amplitude of the hERG potassium current after and before administration, respectively.
Compound IC50 was calculated using GraphPad Prism 5 software by fitting according to the following equation: […]

PDE4B1 = target: T2, PDE4B1 (Homo sapiens, UniProt Q07343); assay: Effect of compounds on PDE4B1 activity (IMAP fluorescence polarization kit); type: biochemical; conditions: class symbols
T2 construct: purchased BPS 60041
Protocol: The IMAP Reaction Buffer containing 0.1% BSA (5×) in the kit was diluted into a 1-fold reaction buffer containing 1 mM DTT. 0.12 nM PDE4B1 (BPS, Cat #60041) was added to the 1-fold reaction buffer to form a 2-fold enzyme solution. 10 μL of the 2-fold enzyme solution was added to wells of a 384-well reaction plate. For the negative control well, 10 μL of the 1-fold reaction buffer was used instead of the enzyme solution. Centrifugation at 1000 rpm for 1 minute and incubation at room temperature for 15 minutes were carried out. 0.2 uM FAM-labeled cAMP (FAM-cAMP, Molecular Device, Cat #R7506) was added to the 1-fold reaction buffer to form a 2-fold substrate solution. 10 μL of the 2-fold substrate solution was added to each well of the 384-well reaction plate. Centrifugation at 1000 rpm for 1 minute was carried out. A reaction was carried out at room temperature for 20 minutes. IMAP Progressive Binding Buffer A (5×), IMAP Progressive Binding Buffer B (5×), and IMAP Progressive Binding Reagent (provided by IMAP FP IPP Explorer Kit) were prepared into a reaction stop solution according to the instructions for use. 60 μL of an […] reaction stop solution was added to each well of the 384-well reaction plate to stop the reaction, and the reaction product was centrifuged at 1000 rpm for 1 minute. Incubation at room temperature in the dark for 60 minutes was carried out. The mP values (Ex480/Em535 (s), Em535 (p)) were read by a microplate reader (Envision).
FP was usually represented by mP value. mP value for FP measurement=1000*(S−G*P)/(S+G*P) • S: fluorescence intensity in parallel direction • P: fluorescence intensity in perpendicular direction • G: G factor=1
[formula] • mP(sample): mP of the test compound in a reaction well • mP(negative control): mP in the negative control well • mP(positive control): mP in the positive control well
According to the calculated inhibition rate at each concentration, the IC50 value of each compound was calculated by XLFit excel add-in version 5.4.0.8 software.
Y=Bottom+(Top−Bottom)/(1+(IC50/X)^HillSlope) Fitting formula: […]

[2] = Inhibition of LPS-induced TNF-α release from human peripheral blood mononuclear cells in vitro; type: cell-based; conditions: PBMC, hPBMC, 100 ng/mL LPS, 4 h; for IC50: class symbols, read-out: Re IC50 (nM) (relative IC50), TNF-α induced by LPS
Protocol: Normal human peripheral blood which was anticoagulated (citric acid anticoagulation) was collected, and hPBMCs were prepared by Ficoll-Paque PLUS (Cytiva, Cat #17144002, density 1.077 g/mL). The concentration of hPBMC cells was adjusted to 0.25×10^6 cells/mL with RPMI1640 medium and inoculated into a 96-well plate in an amount of 50000 cells per well. Subsequently, different concentrations of drugs were added for pre-incubation for 1 h (the DMSO final concentration was 0.1%, and the positive and negative control wells had the same volume of RPMI1640 containing 0.1% DMSO). After the pre-incubation was complete, 100 ng/mL LPS (SIGMA, L2630) was added to the compound and positive control wells, and the negative control well had the same volume of RPMI1640 containing 0.1% DMSO. Incubation was carried out for 4 h in an incubator at 37° C. and 5% CO2. The cell supernatant was collected, and the content of TNF-α in the supernatant sample was detected by human TNF-α Elisa quantitative test kit (Sino Biological, Cat #KIT10602). The IC50 value was calculated using GraphPad Prism software.

T2 sequence (Q07343 whole entry): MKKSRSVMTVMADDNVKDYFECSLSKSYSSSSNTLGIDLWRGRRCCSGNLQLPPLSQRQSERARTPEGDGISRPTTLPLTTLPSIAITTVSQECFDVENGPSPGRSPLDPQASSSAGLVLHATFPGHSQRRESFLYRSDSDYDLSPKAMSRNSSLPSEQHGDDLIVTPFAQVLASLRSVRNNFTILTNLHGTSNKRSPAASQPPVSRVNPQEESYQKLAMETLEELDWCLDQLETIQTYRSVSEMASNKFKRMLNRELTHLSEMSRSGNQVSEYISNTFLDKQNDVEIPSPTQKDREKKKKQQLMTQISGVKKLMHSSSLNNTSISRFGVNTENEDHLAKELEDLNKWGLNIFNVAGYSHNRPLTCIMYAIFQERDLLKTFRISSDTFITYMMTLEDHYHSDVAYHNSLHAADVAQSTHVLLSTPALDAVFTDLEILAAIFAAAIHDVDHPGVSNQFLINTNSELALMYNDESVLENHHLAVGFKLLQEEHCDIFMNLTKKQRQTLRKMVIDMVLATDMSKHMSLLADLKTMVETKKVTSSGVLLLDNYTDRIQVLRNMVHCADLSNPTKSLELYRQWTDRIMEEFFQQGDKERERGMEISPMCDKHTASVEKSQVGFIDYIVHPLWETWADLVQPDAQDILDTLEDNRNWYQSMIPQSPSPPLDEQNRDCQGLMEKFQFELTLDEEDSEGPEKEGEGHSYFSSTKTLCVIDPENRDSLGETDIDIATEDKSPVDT
T1 sequence (Q12809 whole entry): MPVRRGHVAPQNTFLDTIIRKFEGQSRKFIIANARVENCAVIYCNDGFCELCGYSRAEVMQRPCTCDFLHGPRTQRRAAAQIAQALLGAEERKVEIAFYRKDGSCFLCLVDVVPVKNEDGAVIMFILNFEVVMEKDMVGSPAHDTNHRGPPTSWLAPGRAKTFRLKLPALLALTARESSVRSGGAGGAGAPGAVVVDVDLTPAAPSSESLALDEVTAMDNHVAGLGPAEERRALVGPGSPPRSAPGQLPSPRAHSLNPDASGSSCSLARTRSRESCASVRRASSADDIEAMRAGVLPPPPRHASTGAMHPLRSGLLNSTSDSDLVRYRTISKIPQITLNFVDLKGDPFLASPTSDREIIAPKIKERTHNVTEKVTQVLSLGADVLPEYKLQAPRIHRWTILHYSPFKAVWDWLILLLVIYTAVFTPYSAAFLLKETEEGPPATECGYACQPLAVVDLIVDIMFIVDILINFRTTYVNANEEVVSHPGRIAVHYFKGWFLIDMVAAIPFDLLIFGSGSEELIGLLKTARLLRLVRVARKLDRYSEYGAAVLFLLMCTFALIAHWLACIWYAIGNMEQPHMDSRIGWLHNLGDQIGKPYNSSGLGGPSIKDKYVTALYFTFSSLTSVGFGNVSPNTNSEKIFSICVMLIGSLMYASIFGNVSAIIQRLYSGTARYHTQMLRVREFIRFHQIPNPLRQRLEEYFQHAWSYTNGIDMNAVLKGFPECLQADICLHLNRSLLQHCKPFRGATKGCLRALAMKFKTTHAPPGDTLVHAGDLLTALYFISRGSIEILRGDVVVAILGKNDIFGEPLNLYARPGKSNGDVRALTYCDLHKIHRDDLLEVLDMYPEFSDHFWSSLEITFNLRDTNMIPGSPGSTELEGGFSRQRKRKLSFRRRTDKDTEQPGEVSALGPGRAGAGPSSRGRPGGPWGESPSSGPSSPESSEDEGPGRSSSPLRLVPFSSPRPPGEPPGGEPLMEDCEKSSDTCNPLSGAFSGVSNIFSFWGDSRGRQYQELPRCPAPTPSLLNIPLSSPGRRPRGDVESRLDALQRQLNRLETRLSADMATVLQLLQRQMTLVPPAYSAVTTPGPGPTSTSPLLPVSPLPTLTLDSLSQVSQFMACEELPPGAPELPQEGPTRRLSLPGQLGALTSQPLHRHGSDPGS

Compound | IC50 [1] [µM] | IC50 (PDE4B1) [µM] | IC50 [2] [nM] | Emax ([2]; read-out: Max inhibition (%)) [%]
[O-][S@+]1CCc2nc(N3C[C@H]4CN(c5ccc6c(c5)CC6)C[C@H]4C3)nc(NC3(CO)CCC3)c21 [Compound 31] | 12.2 | < 0.01 | 50 to 100 | 75.4
C#Cc1cnc(C2=CCN(c3nc4c(c(NC5(CO)CCC5)n3)[S+]([O-])CC4)CC2)nc1 (stereo not shown) [Compound 37] | 13.3 | < 0.01 | < 10 | 
